Results reported in ChEMBL document CHEMBL1201861, “Genomics of Drug Sensitity in Cancer screening data, Wellcome Trust Sanger Institute”.
pIC50: −log10 of the molar value. Where “and” joins values, the source holds several entries; their conditions need not be identical. Equal values may be shown once.

Tests used:
Experiment in all cases: cells
COLO-792 = assay type: functional, cell-based, Homo sapiens
Description: SANGER: Inhibition of human COLO-792 cell growth in a cell viability assay.

COLO-824 = assay type: functional, cell-based, Homo sapiens
Description: SANGER: Inhibition of human COLO-824 cell growth in a cell viability assay.

COR-L23 = assay type: functional, cell-based, Homo sapiens;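 further: cell viability assay measuring how strongly compounds suppress growth of COR-L23 cells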
Description: SANGER: Inhibition of human COR-L23 cell growth in a cell viability assay.

D-247MG = assay type: functional, cell-based, Homo sapiens
Description: SANGER: Inhibition of human D-247MG cell growth in a cell viability assay.

ES1 = assay type: functional, cell-based, Homo sapiens;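 further: growth inhibition of ES1 cells, read out with a cell viability assay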
Description: SANGER: Inhibition of human ES1 cell growth in a cell viability assay.

ESS-1 = assay type: functional, cell-based, Homo sapiens;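 further: growth inhibition of human ESS-1 cells, read out by a cell viability assay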
Description: SANGER: Inhibition of human ESS-1 cell growth in a cell viability assay.

EOL1 = assay type: functional, cell-based; conditions: Homo sapiens;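 further: growth inhibition of EoL-1 cells, read out by a cell viability assay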
Description: SANGER: Inhibition of human EoL-1-cell cell growth in a cell viability assay.

HCC1187 = assay type: functional, cell-based, Homo sapiens;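 further: growth inhibition of HCC1187 cells, read out with a cell viability assay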
Description: SANGER: Inhibition of human HCC1187 cell growth in a cell viability assay.

HCC1395 = assay type: functional, cell-based, Homo sapiens;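 further: growth inhibition of HCC1395 cells, read out by a cell viability assay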
Description: SANGER: Inhibition of human HCC1395 cell growth in a cell viability assay.

J-RT3-T3-5 = assay type: functional, cell-based; conditions: Homo sapiens;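 further: cell viability assay measuring growth inhibition of human J-RT3-T3-5 cells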
Description: SANGER: Inhibition of human J-RT3-T3-5 cell growth in a cell viability assay.

JVM-3 = assay type: functional, cell-based; conditions: Homo sapiens;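 further: growth inhibition of human JVM-3 cells, read out with a cell viability assay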
Description: SANGER: Inhibition of human JVM-3 cell growth in a cell viability assay.

KINGS-1 = assay type: functional, cell-based, Homo sapiens;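 further: cell viability assay measuring suppression of KINGS-1 cell growth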
Description: SANGER: Inhibition of human KINGS-1 cell growth in a cell viability assay.

KNS-42 = assay type: functional, cell-based, Homo sapiens;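 further: growth inhibition of KNS-42 cells, read out with a cell viability assay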
Description: SANGER: Inhibition of human KNS-42 cell growth in a cell viability assay.

KS-1 = assay type: functional, cell-based, Homo sapiens;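 further: growth inhibition of KS-1 cells, read out with a cell viability assay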
Description: SANGER: Inhibition of human KS-1 cell growth in a cell viability assay.

KYSE-70 cell line = assay type: functional, cell-based, Homo sapiens;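 further: cell viability assay read-out, with IC50 expressing suppression of KYSE-70 cell growth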
Description: SANGER: Inhibition of human KYSE-70 cell growth in a cell viability assay.

LAN-6 = assay type: functional, cell-based, Homo sapiens;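 further: growth inhibition of LAN-6 cells, determined with a cell viability assay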
Description: SANGER: Inhibition of human LAN-6 cell growth in a cell viability assay.

LB373-MEL-D = assay type: functional, cell-based, Homo sapiens;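 further: growth inhibition of the cell line, read out in a cell viability assay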
Description: SANGER: Inhibition of human LB373-MEL-D cell growth in a cell viability assay.

LN-405 = assay type: functional, cell-based, Homo sapiens
Description: SANGER: Inhibition of human LN-405 cell growth in a cell viability assay.

MG-63 = assay type: functional, cell-based, Homo sapiens;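 further: growth inhibition of human MG-63 cells, read out with a cell viability assay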
Description: SANGER: Inhibition of human MG-63 cell growth in a cell viability assay.

MPP-89 = assay type: functional, cell-based, Homo sapiens;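 further: growth inhibition of human MPP-89 cells, read out with a cell viability assay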
Description: SANGER: Inhibition of human MPP-89 cell growth in a cell viability assay.

NB5 = assay type: functional, cell-based, Homo sapiens;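 further: growth inhibition of NB5 cells, read out as cell viability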
Description: SANGER: Inhibition of human NB5 cell growth in a cell viability assay.

NCI-H2087 = assay type: functional, cell-based, Homo sapiens;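 further: growth inhibition determined with a cell viability readout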
Description: SANGER: Inhibition of human NCI-H2087 cell growth in a cell viability assay.

NCI-H2347 = assay type: functional, cell-based, Homo sapiens;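 further: growth inhibition of the cell line, read out with a cell viability assay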
Description: SANGER: Inhibition of human NCI-H2347 cell growth in a cell viability assay.

NCI-H2405 = assay type: functional, cell-based, Homo sapiens;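 further: growth inhibition of the human cell line, read out with a cell viability assay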
Description: SANGER: Inhibition of human NCI-H2405 cell growth in a cell viability assay.

NCI-H292 = assay type: functional, cell-based, Homo sapiens;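 further: growth inhibition of NCI-H292 cells, read out with a cell viability assay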
Description: SANGER: Inhibition of human NCI-H292 cell growth in a cell viability assay.

NCI-H358 = assay type: functional, cell-based, Homo sapiens;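 further: growth inhibition of NCI-H358 human cells, read out with a cell viability assay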
Description: SANGER: Inhibition of human NCI-H358 cell growth in a cell viability assay.

NCI-H661 = assay type: functional, cell-based, Homo sapiens;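 further: cell viability assay read-out, IC50 being the concentration that inhibits growth of the cells by half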
Description: SANGER: Inhibition of human NCI-H661 cell growth in a cell viability assay.

NCI-H82 = assay type: functional, cell-based; conditions: Homo sapiens;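 further: growth inhibition of NCI-H82 cells, measured with a cell viability readout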
Description: SANGER: Inhibition of human NCI-H82 cell growth in a cell viability assay.

NKM-1 = assay type: functional, cell-based; conditions: Homo sapiens;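 further: growth inhibition of NKM-1 cells, read out with a cell viability assay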
Description: SANGER: Inhibition of human NKM-1 cell growth in a cell viability assay.

OCUB-M = assay type: functional, cell-based, Homo sapiens;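 further: growth inhibition of the cancer cell line, read out through a cell viability assay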
Description: SANGER: Inhibition of human OCUB-M cell growth in a cell viability assay.

OVCAR-8 = assay type: functional, cell-based, Homo sapiens;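 further: growth inhibition of human OVCAR-8 cells, read out by a cell viability assay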
Description: SANGER: Inhibition of human OVCAR-8 cell growth in a cell viability assay.

RVH-421 = assay type: functional, cell-based, Homo sapiens
Description: SANGER: Inhibition of human RVH-421 cell growth in a cell viability assay.

SAS = assay type: functional, cell-based, Homo sapiens;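 further: growth inhibition of SAS cells, read out with a cell viability assay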
Description: SANGER: Inhibition of human SAS cell growth in a cell viability assay.

SF-126 = assay type: functional, cell-based, Homo sapiens;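 further: growth inhibition of human SF126 cells, read out with a cell viability assay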
Description: SANGER: Inhibition of human SF126 cell growth in a cell viability assay.

SK-LU-1 = assay type: functional, cell-based, Homo sapiens;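 further: cell viability assay measuring growth inhibition of human SK-LU-1 cells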
Description: SANGER: Inhibition of human SK-LU-1 cell growth in a cell viability assay.

SW1990 = assay type: functional, cell-based, Homo sapiens;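 further: cell growth inhibition determined with a viability assay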
Description: SANGER: Inhibition of human SW1990 cell growth in a cell viability assay.

SW626 = assay type: functional, cell-based, Homo sapiens;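 further: growth inhibition of SW626 cells, measured with a cell viability assay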
Description: SANGER: Inhibition of human SW626 cell growth in a cell viability assay.

SW872 = assay type: functional, cell-based, Homo sapiens;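 further: growth inhibition of SW872 cells, read out by a viability assay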
Description: SANGER: Inhibition of human SW872 cell growth in a cell viability assay.

SAOS-2 = assay type: functional, cell-based, Homo sapiens;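 further: growth inhibition of human Saos-2 cells determined by a cell viability assay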
Description: SANGER: Inhibition of human Saos-2 cell growth in a cell viability assay.

SiHa = assay type: functional, cell-based, Homo sapiens;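 further: Viability-based readout of growth inhibition in SiHa cells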
Description: SANGER: Inhibition of human SiHa cell growth in a cell viability assay.

TCC-SUP = assay type: functional, cell-based, Homo sapiens;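 further: growth inhibition of TCC-SUP cells, read out with a cell viability assay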
Description: SANGER: Inhibition of human TCCSUP cell growth in a cell viability assay.

ACN = assay type: functional, cell-based, Homo sapiens;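 further: growth inhibition of the human ACN cell line, read out via cell viability testing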
Description: SANGER: Inhibition of human ACN cell growth in a cell viability assay.

AN3-CA = assay type: functional, cell-based; conditions: Homo sapiens;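 further: growth inhibition of human AN3-CA cells measured by a cell viability assay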
Description: SANGER: Inhibition of human AN3-CA cell growth in a cell viability assay.

BPH-1 = assay type: functional, cell-based, Homo sapiens;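 further: cell viability assay measuring growth inhibition of human BPH-1 cells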
Description: SANGER: Inhibition of human BPH-1 cell growth in a cell viability assay.

C32 = assay type: functional, cell-based, Homo sapiens;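 further: cell viability assay, with IC50 reflecting inhibition of C32 cell growth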
Description: SANGER: Inhibition of human C32 cell growth in a cell viability assay.

C3A = assay type: functional, cell-based, Homo sapiens;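 further: growth inhibition of C3A human cells, quantified with a cell viability readout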
Description: SANGER: Inhibition of human C3A cell growth in a cell viability assay.

CAKI-1 = assay type: functional, cell-based, Homo sapiens;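 further: growth inhibition of CAKI-1 cells, measured by a cell viability assay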
Description: SANGER: Inhibition of human CAKI-1 cell growth in a cell viability assay.

CAL-62 = assay type: functional, cell-based, Homo sapiens;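 further: growth inhibition of CAL-62 cells, read out with a cell viability assay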
Description: SANGER: Inhibition of human CAL-62 cell growth in a cell viability assay.

CAL-85-1 = assay type: functional, cell-based; conditions: Homo sapiens;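 further: growth inhibition of human CAL-85-1 cells, read out with a cell viability assay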
Description: SANGER: Inhibition of human CAL-85-1 cell growth in a cell viability assay.

TE-8 = assay type: functional, cell-based, Homo sapiens;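 further: growth inhibition of TE-8 cells, measured with a cell viability readout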
Description: SANGER: Inhibition of human TE-8 cell growth in a cell viability assay.

no-10 = assay type: functional, cell-based, Homo sapiens;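 further: growth inhibition of no-10 cells, read out with a cell viability assay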
Description: SANGER: Inhibition of human no-10 cell growth in a cell viability assay.

SMILES: Cc1cc([C@@H](C)Nc2ccccc2C(=O)O)c2nc(N3CCOCC3)cc(=O)n2c1 [AZD-6482]
- pIC50 (COLO-792; colo-792): < 5.29
- pIC50 (COLO-824; colo-824): < 5.29
- pIC50 (COR-L23; cor-l23): < 5.29
- pIC50 (D-247MG; d-247mg): < 5.29
- pIC50 (ES1; es1): < 5.29
- pIC50 (ESS-1; Homo sapiens, ESS-1): < 5.29
- pIC50 (ESS-1; ess-1): < 5.29
- pIC50 (EOL1): < 5.29
- pIC50 (HCC1187; Homo sapiens, HCC1187): < 5.29
- pIC50 (HCC1187; hcc1187): < 5.29
- pIC50 (HCC1395; Homo sapiens, HCC1395): < 5.29
- pIC50 (HCC1395; hcc1395): < 5.29
- pIC50 (J-RT3-T3-5): < 5.29
- pIC50 (JVM-3): < 5.29
- pIC50 (KINGS-1; Homo sapiens, KINGS-1): < 5.29
- pIC50 (KINGS-1; kings-1): < 5.29
- pIC50 (KNS-42; kns-42): < 5.29
- pIC50 (KS-1; Homo sapiens, KS-1): < 5.29
- pIC50 (KS-1; ks-1): < 5.29
- pIC50 (KYSE-70 cell line; kyse-70): < 5.29
- pIC50 (LAN-6; lan-6): < 5.29
- pIC50 (LB373-MEL-D; lb373-mel-d): < 5.29
- pIC50 (LN-405; Homo sapiens, LN-405): 5.61
- pIC50 (LN-405; ln-405): 5.54
- pIC50 (MG-63; mg-63): < 5.29 and 5.80
- pIC50 (MPP-89; mpp-89): < 5.29
- pIC50 (NB5; nb5): < 5.29
- pIC50 (NCI-H2087; Homo sapiens, NCI-H2087): < 5.29
- pIC50 (NCI-H2087; nci-h2087): < 5.29
- pIC50 (NCI-H2347; Homo sapiens, NCI-H2347): < 5.29
- pIC50 (NCI-H2347; nci-h2347): < 5.29
- pIC50 (NCI-H2405; nci-h2405): < 5.29
- pIC50 (NCI-H292; nci-h292): 5.44 and 5.81
- pIC50 (NCI-H358; nci-h358): < 5.29
- pIC50 (NCI-H661; nci-h661): < 5.29
- pIC50 (NCI-H82): < 5.29
- pIC50 (NKM-1): 5.89
- pIC50 (OCUB-M; ocub-m): 5.80 and 6.14
- pIC50 (OVCAR-8; ovcar-8): < 5.29
- pIC50 (RVH-421; rvh-421): < 5.29
- pIC50 (SAS; sas): < 5.29
- pIC50 (SF-126; sf-126): 5.35 and < 5.29
- pIC50 (SK-LU-1; sk-lu-1): < 5.29
- pIC50 (SW1990; sw1990): < 5.29
- pIC50 (SW626; sw626): < 5.29
- pIC50 (SW872; sw872): < 5.29 and 5.51
- pIC50 (SAOS-2; Homo sapiens, SAOS-2): < 5.29
- pIC50 (SAOS-2; saos-2): < 5.29
- pIC50 (SiHa; Homo sapiens, SiHa): < 5.29
- pIC50 (SiHa; siha): < 5.29
- pIC50 (TCC-SUP; tcc-sup): < 5.29
- pIC50 (ACN; Homo sapiens, ACN): < 5.29
- pIC50 (ACN; acn): < 5.29
- pIC50 (AN3-CA): 5.44
- pIC50 (BPH-1; Homo sapiens, BPH-1): 5.31
- pIC50 (BPH-1; bph-1): 5.37
- pIC50 (C32; c32): < 5.29
- pIC50 (C3A; c3a): < 5.29
- pIC50 (CAKI-1; Homo sapiens, CAKI-1): 5.50
- pIC50 (CAKI-1; caki-1): 5.33
- pIC50 (CAL-62; cal-62): < 5.29
- pIC50 (CAL-85-1): 5.64
- pIC50 (TE-8; te-8): < 5.29
- pIC50 (no-10): < 5.29
- pIC50 (no-10; Homo sapiens): < 5.29

SMILES: O=C(NOCC1CC1)c1ccc(F)c(F)c1Nc1ccc(I)cc1Cl [CI-1040]
- pIC50 (COLO-792; Homo sapiens, COLO-792): 5.55
- pIC50 (COLO-824; Homo sapiens, COLO-824): < 5.00
- pIC50 (COR-L23; Homo sapiens, COR-L23): 5.14
- pIC50 (D-247MG; Homo sapiens, D-247MG): < 5.00
- pIC50 (ES1; Homo sapiens, ES1): < 5.00
- pIC50 (ESS-1; Homo sapiens, ESS-1): < 5.00
- pIC50 (EOL1): 7.38
- pIC50 (HCC1187; Homo sapiens, HCC1187): < 5.00
- pIC50 (HCC1395; Homo sapiens, HCC1395): < 5.00
- pIC50 (J-RT3-T3-5): < 5.00
- pIC50 (JVM-3): < 5.00
- pIC50 (KINGS-1; Homo sapiens, KINGS-1): < 5.00
- pIC50 (KNS-42; Homo sapiens, KNS-42): < 5.00
- pIC50 (KS-1; Homo sapiens, KS-1): < 5.00
- pIC50 (KYSE-70 cell line; Homo sapiens, KYSE-70): < 5.00
- pIC50 (LAN-6; Homo sapiens, LAN-6): 5.36
- pIC50 (LB373-MEL-D; Homo sapiens, LB373-MEL-D): < 5.00
- pIC50 (LN-405; Homo sapiens, LN-405): < 5.00
- pIC50 (MG-63; Homo sapiens, MG-63): < 5.00
- pIC50 (MPP-89; Homo sapiens, MPP-89): < 5.00
- pIC50 (NB5; Homo sapiens, NB5): 5.34
- pIC50 (NCI-H2087; Homo sapiens, NCI-H2087): 5.41
- pIC50 (NCI-H2347; Homo sapiens, NCI-H2347): < 5.00
- pIC50 (NCI-H2405; Homo sapiens, NCI-H2405): < 5.00
- pIC50 (NCI-H292; Homo sapiens, NCI-H292): 5.73
- pIC50 (NCI-H358; Homo sapiens, NCI-H358): 5.35
- pIC50 (NCI-H661; Homo sapiens, NCI-H661): < 5.00
- pIC50 (NCI-H82): < 5.00
- pIC50 (NKM-1): < 5.00
- pIC50 (OCUB-M; Homo sapiens, OCUB-M): < 5.00
- pIC50 (OVCAR-8; Homo sapiens, OVCAR-8): < 5.00
- pIC50 (RVH-421; Homo sapiens, RVH-421): 6.01
- pIC50 (SAS; Homo sapiens, SAS): < 5.00
- pIC50 (SF-126; Homo sapiens, SF-126): < 5.00
- pIC50 (SK-LU-1; Homo sapiens, SK-LU-1): 5.43
- pIC50 (SW1990; Homo sapiens, SW1990): < 5.00
- pIC50 (SW626; Homo sapiens, SW626): 5.39
- pIC50 (SW872; Homo sapiens, SW872): < 5.00
- pIC50 (SAOS-2; Homo sapiens, SAOS-2): < 5.00
- pIC50 (SiHa; Homo sapiens, SiHa): < 5.00
- pIC50 (TCC-SUP; Homo sapiens, TCC-SUP): < 5.00
- pIC50 (ACN; Homo sapiens, ACN): 6.57
- pIC50 (AN3-CA): 5.17
- pIC50 (BPH-1; Homo sapiens, BPH-1): 5.72
- pIC50 (C32; Homo sapiens, C32): 6.72
- pIC50 (C3A; Homo sapiens, C3A): < 5.00
- pIC50 (CAKI-1; Homo sapiens, CAKI-1): 5.07
- pIC50 (CAL-62; Homo sapiens, CAL-62): 5.39
- pIC50 (CAL-85-1): < 5.00
- pIC50 (TE-8; Homo sapiens, TE-8): 5.25
- pIC50 (no-10; Homo sapiens): < 5.00
